# From ChEMBL document CHEMBL1201862, “PubChem BioAssay data set” (2004)
# Active and inactive are the calls of the source.
# Test system: P388
# Assay: cells
# Type: functional
# Conditions: Mus musculus
row,Structure (SMILES),GI50
1,CC12CCC3C(CCC4=CC(O)CCC43C=O)C1(O)CCC2c1ccc(=O)oc1 (stereo unspecified),< 0.1 µM (active)
2,CC1(C)N=C(N)N=C(N)N1c1ccc(CCCCc2ccc(S(=O)(=O)F)cc2Cl)c(Cl)c1,0.05 µM (active)
3,CCNCCCCNCC,1560 µM (inactive)
4,COc1ccc2nc3c(C(=O)NCCN(C)C)cccc3cc2c1,0.305 µM (active)
5,NC(Cc1cc(I)c(O)c(I)c1)C(=O)O (stereo unspecified),21.6 µM (inactive)
6,NC(=O)c1[nH]nc(C2OC(CO)C(O)C2O)c1O (stereo unspecified),0.5 µM (active)

# Test system: SN12K1
# Assay: cells
# Type: functional
# Conditions: Homo sapiens
row,Structure (SMILES),GI50
1,CC12CCC3C(CCC4=CC(O)CCC43C=O)C1(O)CCC2c1ccc(=O)oc1 (stereo unspecified),0.05 µM (active)
2,CC1(C)N=C(N)N=C(N)N1c1ccc(CCCCc2ccc(S(=O)(=O)F)cc2Cl)c(Cl)c1,0.979 µM (active)
3,CCNCCCCNCC,> 3750 µM (inactive)
4,COc1ccc2nc3c(C(=O)NCCN(C)C)cccc3cc2c1,0.944 µM (active)
5,NC(Cc1cc(I)c(O)c(I)c1)C(=O)O (stereo unspecified),169 µM (inactive)
6,NC(=O)c1[nH]nc(C2OC(CO)C(O)C2O)c1O (stereo unspecified),0.561 µM (active)

# Target: T1, Polyadenylate-binding protein 1 (Homo sapiens, UniProt P11940)
# Assay: PABP1 MLLE–PAM2 interaction inhibitors, dose response, miRNA deadenylation inhibitor project, biochemical, fluorescence polarization, Cy5-PAM2 peptide, secondary (AID 602260)
# Type: functional
# Conditions: read-out: IC50_Mean
# T1 sequence (P11940 whole entry): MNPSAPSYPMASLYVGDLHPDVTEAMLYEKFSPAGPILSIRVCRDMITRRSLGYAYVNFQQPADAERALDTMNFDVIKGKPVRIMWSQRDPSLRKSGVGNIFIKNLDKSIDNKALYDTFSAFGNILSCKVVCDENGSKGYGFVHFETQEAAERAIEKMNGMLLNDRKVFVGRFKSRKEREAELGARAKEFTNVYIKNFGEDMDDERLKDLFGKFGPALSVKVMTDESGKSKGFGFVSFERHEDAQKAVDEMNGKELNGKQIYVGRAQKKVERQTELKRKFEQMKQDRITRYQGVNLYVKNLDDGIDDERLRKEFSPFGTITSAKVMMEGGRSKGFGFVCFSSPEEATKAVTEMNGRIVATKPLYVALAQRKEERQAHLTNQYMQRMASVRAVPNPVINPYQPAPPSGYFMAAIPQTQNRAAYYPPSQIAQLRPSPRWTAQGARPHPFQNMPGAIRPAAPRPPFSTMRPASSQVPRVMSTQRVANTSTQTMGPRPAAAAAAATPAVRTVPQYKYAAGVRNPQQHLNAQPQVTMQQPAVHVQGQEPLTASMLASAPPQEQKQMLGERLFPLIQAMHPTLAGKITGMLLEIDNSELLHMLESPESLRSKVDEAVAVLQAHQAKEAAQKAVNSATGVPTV
row,IC50,Structure (SMILES)
1,> 66 µM (inactive),CCOCC(=O)Nc1nnc(COc2ccc(Cl)cc2)s1
2,> 66 µM (inactive),CCCn1c(N)c(C(=S)NC(=O)C2CC2)c(=O)n(C)c1=O
3,> 66 µM (inactive),CCCCNC(=O)c1sc(=S)n(-c2ccccc2OC)c1N
4,> 66 µM (inactive),COc1ccc(C(=O)CCN2CCC(C)CC2)cc1
5,> 66 µM (inactive),CCCCC1NC(C(=O)O)CS1 (stereo unspecified)

row,Structure (SMILES),IC50
1,CCOP(=O)(Cc1cc(C(C)=O)c(C)o1)OCC,> 66 µM (inactive)

# Target: T2, Histone-lysine N-methyltransferase NSD2 (Homo sapiens, UniProt O96028)
# T2 sequence (O96028 whole entry): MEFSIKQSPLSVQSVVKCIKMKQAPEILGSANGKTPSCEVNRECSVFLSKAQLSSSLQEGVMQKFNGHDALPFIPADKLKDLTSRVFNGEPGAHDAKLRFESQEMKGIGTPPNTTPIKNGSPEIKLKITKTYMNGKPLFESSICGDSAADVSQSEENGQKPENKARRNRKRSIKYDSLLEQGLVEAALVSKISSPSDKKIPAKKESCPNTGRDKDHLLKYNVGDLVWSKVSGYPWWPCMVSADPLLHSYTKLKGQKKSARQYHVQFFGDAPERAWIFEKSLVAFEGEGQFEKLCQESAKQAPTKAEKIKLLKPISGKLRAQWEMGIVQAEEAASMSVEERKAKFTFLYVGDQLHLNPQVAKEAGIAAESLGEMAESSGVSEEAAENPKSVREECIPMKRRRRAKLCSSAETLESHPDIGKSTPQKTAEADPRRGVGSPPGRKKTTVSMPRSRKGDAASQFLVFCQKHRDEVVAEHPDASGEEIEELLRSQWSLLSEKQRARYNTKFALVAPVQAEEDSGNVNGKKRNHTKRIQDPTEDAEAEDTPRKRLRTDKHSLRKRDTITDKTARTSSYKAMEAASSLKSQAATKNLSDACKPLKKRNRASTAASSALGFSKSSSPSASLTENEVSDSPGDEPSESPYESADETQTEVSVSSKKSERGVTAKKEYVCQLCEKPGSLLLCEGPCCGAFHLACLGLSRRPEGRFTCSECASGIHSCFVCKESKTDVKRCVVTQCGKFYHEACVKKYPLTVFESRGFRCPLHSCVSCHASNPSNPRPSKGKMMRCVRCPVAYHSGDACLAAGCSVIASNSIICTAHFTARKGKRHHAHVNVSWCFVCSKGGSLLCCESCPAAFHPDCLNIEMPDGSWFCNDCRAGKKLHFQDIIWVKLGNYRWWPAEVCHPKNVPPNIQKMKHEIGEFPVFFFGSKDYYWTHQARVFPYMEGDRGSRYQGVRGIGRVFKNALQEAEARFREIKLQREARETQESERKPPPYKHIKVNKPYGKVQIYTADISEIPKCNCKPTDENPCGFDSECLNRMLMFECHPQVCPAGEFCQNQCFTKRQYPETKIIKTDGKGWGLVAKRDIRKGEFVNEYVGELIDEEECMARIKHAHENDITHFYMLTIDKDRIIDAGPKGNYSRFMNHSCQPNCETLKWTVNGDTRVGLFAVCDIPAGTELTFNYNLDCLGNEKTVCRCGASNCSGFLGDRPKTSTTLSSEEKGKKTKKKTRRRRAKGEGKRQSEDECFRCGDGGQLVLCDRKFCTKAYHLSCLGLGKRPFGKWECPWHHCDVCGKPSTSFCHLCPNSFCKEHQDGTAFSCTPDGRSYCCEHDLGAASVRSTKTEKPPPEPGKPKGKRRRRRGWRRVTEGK
# Assay: not given
# Type: biochemical
# Conditions: not given
row,AC50,Structure (SMILES)
1,> 20 µM (inactive),O=[N+]([O-])c1ccccc1Nc1ccc(O)cc1
2,15.3 µM (active),CN(C)c1cccc2c(S(=O)(=O)Nc3ccccn3)cccc12
3,> 20 µM (inactive),CCN(CC)CCNC(=O)c1c(C)[nH]c(/C=C2\C(=O)Nc3ccc(F)cc32)c1C

# Target: T1, Polyadenylate-binding protein 1
# Assay: PABP1 MLLE–PAM2 binding inhibitor potency, dose response, biochemical, fluorescence polarization, FITC-PAM2 peptide (AID 602259)
# Type: functional
# Conditions: read-out: IC50_Mean
row,IC50,Structure (SMILES)
1,> 66 µM (inactive),CCOCC(=O)Nc1nnc(COc2ccc(Cl)cc2)s1
2,> 66 µM (inactive),CCCn1c(N)c(C(=S)NC(=O)C2CC2)c(=O)n(C)c1=O
3,> 66 µM (inactive),CCCCNC(=O)c1sc(=S)n(-c2ccccc2OC)c1N
4,> 66 µM (inactive),COc1ccc(C(=O)CCN2CCC(C)CC2)cc1
5,> 66 µM (inactive),CCCCC1NC(C(=O)O)CS1 (stereo unspecified)

row,Structure (SMILES),IC50
1,CCOP(=O)(Cc1cc(C(C)=O)c(C)o1)OCC,> 66 µM (inactive)

# Test system: P388/ADR
# Assay: cells
# Type: functional
# Conditions: Mus musculus
row,Structure (SMILES),GI50
1,CC12CCC3C(CCC4=CC(O)CCC43C=O)C1(O)CCC2c1ccc(=O)oc1 (stereo unspecified),0.21 µM (active)
2,CC1(C)N=C(N)N=C(N)N1c1ccc(CCCCc2ccc(S(=O)(=O)F)cc2Cl)c(Cl)c1,0.369 µM (active)
3,CCNCCCCNCC,> 3750 µM (inactive)
4,COc1ccc2nc3c(C(=O)NCCN(C)C)cccc3cc2c1,0.652 µM (active)
5,NC(Cc1cc(I)c(O)c(I)c1)C(=O)O (stereo unspecified),21.3 µM (inactive)
6,NC(=O)c1[nH]nc(C2OC(CO)C(O)C2O)c1O (stereo unspecified),0.5 µM (active)

# Target: T3, Rac GTPase-activating protein 1 (Homo sapiens, UniProt Q9H0H5)
# T3 sequence (Q9H0H5 whole entry): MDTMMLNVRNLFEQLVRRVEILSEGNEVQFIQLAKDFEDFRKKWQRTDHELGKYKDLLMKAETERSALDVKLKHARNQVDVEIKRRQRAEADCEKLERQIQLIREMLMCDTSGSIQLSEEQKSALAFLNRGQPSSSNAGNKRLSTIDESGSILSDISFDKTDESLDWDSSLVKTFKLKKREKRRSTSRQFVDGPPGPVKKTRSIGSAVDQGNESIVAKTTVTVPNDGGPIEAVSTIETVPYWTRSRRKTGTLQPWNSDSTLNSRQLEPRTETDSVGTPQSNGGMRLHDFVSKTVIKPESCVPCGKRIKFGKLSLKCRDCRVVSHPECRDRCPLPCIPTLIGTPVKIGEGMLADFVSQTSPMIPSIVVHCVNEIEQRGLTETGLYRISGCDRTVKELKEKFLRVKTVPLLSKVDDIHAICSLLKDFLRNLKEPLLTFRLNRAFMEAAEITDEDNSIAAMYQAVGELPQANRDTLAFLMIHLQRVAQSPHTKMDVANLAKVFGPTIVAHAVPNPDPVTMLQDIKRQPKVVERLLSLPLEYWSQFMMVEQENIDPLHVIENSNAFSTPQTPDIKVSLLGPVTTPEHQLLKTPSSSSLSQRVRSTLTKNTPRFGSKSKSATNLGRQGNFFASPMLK
# Assay: MgcRacGAP GTPase-activating activity inhibitors, confirmation, biochemical, ADP Hunter fluorescence, primary and confirmatory (AID 624330)
# Type: functional
# Conditions: not given
row,IC50,Structure (SMILES)
1,22.6 µM (active),O=[N+]([O-])c1ccccc1Nc1ccc(O)cc1

# Test system: not listed separately
# Assay: P. falciparum Dd2 growth inhibitors, dose response, SYBR Green, cherry-picked samples (AID 1159567)
# Type: functional, cell-based
# Conditions: not given
row,Structure (SMILES),AC50
1,N#Cc1ccc(-c2ccc3c(c2)[C@@H]2[C@@H](CCN2C(=O)C2CCC2)[C@@H](CO)N3)cc1,9.93 µM (active)
2,Cc1ccc(S(=O)(=O)N(C)C[C@H]2Oc3ccc(NC(=O)c4ccncc4)cc3C(=O)N([C@@H](C)CO)C[C@@H]2C)cc1,8.41 µM (active)
